# Test system: SKOV-3 cells
# Experiment: TMRE-based detection of mitochondrial membrane potential (ΔΨm)
# Format: cell-based, human
# Details: 1 μM, 72 h, fresh compound every 24 h; three independent experiments; p < 0.01 vs untreated
# Source text: The apoptosis of SKOV3 cells by Con-3, Con-7 and mitoxantrone was further validated in a mitochondrial membrane potential (ΔΨm) assay, which utilizes the cell-permeable, cationic dye, tetramethylrhodamine ethyl ester (TMRE) to detect the ΔΨm. TMRE accumulates in healthy mitochondria with polarized membrane, but not in the mitochondria of apoptotic cells. Mitochondrial permeabilization and the loss of the mitochondrial transmembrane potential are associated with cell apoptosis and a drop in fluorescence of TMRE [40].
# Figure 8 TMRE-based detection of mitochondrial membrane potential (ΔΨm) of SKOV-3 cells. The change in ΔΨm was detected using TMRE after treatment of SKOV3 cells with 1μM Con-3, Con-7 or mitoxantrone for 72 h. The TMRE fluorescence intensities are represented as histogram bars for results obtained in three independent experiments. […] The data are expressed as the mean ± SEM.
# The reduced mitochondrial membrane potential (ΔΨm) that accompanies apoptosis was detected using the fluorescent dye, tetramethylrhodamine ethyl ester (TMRE) (Ex/Em: 530/580 nm), (Cayman, TMRE Mitochondrial Membrane Potential Assay Kit, Item No. 701310). SKOV-3 cells were grown on 60 mm tissue culture dishes to achieve ca. 60% confluence. Monolayers of these cells were treated for a total of 72 h using RPMI 1640 containing 1 μM each of Con-3, Con-7 or mitoxantrone. At the end of each consecutive 24 h treatment period, the test solutions were removed and replaced with new media containing fresh test compounds. After 72 h TMRE was added to each dish to a final concentration of 5 μM. After a 30 min exposure to TMRE, the media was removed so that the cell monolayers could be dispersed using 0.25% trypsin-EDTA. The resultant cell suspensions were subjected to centrifugation and repeated resuspension in a standard extracellular salt solution (SES). […] The TMRE fluorescence intensities monitored from the individual wells were measured using a Flexstation 3 microplate reader (Molecular Devices, Sunnyvale, CA, USA).
row,Structure (SMILES),"TMRE accumulation / fluorescence (mitochondrial membrane potential), in words"
1,CCNC(=O)[C@@H]1CCCN1C(=O)[C@H](CCCNC(=N)N)NC(=O)[C@H](CC(C)C)NC(=O)[C@@H](CSSCCC(=O)OCCNCCNc1ccc(NCCNCCO)c2c1C(=O)c1c(O)ccc(O)c1C2=O)NC(=O)[C@H](Cc1ccc(O)cc1)NC(=O)[C@H](CO)NC(=O)[C@H](Cc1c[nH]c2ccccc12)NC(=O)[C@H](Cc1c[nH]cn1)NC(=O)[C@@H]1CCC(=O)N1 [Con-3],significantly reduced the accumulation of the TMRE
2,CCNC(=O)[C@@H]1CCCN1C(=O)[C@H](CCCNC(=N)N)NC(=O)[C@H](CC(C)C)NC(=O)[C@@H](CCCCNC(=O)CCCCCNC(=O)CCSSCC(=O)OCCNCCNc1ccc(NCCNCCO)c2c1C(=O)c1c(O)ccc(O)c1C2=O)NC(=O)[C@H](Cc1ccc(O)cc1)NC(=O)[C@H](CO)NC(=O)[C@H](Cc1c[nH]c2ccccc12)NC(=O)[C@H](Cc1c[nH]cn1)NC(=O)[C@@H]1CCC(=O)N1 [Con-7],significantly reduced the accumulation of the TMRE
3,O=C1c2c(O)ccc(O)c2C(=O)c2c(NCCNCCO)ccc(NCCNCCO)c21 [mitoxantrone],significantly reduced the accumulation of the TMRE
